Converted amounts (≈) assume the structure as drawn.
Legend:
hTG2 [1] = target: T1, hTG2 (Homo sapiens, UniProt P21980); settings: shown previously; cited from earlier work
T1 sequence (P21980 1-687): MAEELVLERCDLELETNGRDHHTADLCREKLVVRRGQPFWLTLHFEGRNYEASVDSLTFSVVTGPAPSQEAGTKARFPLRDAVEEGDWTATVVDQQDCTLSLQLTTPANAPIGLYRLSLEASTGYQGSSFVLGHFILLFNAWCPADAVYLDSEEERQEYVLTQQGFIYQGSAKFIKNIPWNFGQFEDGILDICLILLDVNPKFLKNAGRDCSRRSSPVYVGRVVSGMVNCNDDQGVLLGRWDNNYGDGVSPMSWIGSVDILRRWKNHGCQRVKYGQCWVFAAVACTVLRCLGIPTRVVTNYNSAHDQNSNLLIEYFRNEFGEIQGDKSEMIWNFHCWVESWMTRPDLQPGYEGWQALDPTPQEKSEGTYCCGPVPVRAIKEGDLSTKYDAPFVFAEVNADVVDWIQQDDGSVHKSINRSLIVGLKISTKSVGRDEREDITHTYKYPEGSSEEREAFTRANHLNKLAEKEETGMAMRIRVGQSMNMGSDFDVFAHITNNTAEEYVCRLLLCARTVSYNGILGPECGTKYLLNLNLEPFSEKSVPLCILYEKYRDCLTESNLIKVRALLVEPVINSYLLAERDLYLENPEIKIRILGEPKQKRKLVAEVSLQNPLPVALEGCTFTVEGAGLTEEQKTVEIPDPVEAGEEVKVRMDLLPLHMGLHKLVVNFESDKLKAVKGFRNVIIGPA

hTG2 [2] = target: T1, hTG2; assay: In vitro GTP binding assay (BODIPY GTP-γ-S fluorescence); settings: inhibitor 2×KI, 30 minutes at 25° C.; 3 μM BODIPY GTP-γ-S
Method: Previously we proposed a mechanism of action for the NC9, VA4 and AA9 inhibitors based on their ability to react covalently with the open conformation of TG2, locking the enzyme in that conformation and thereby abolishing the enzyme's ability to bind GTP and act as a G-protein. […] We used the same in vitro GTP binding assay to measure the ability of representative phenylacetyl inhibitors 67 and 72 to abolish GTP binding, as follows:
In vitro GTP binding assay. GTP binding was measured using a method similar to that reported previously (McEwen, D. P. et al., “Fluorescent BODIPY-GTP analogs: Real-time measurement of nucleotide binding to G proteins.” Anal. Biochem. 2001, 291 (1), 109-117). […] The buffer was then exchanged to 100 mM MOPS (pH=7.0), 1 mM EGTA and 5 mM MgCl2 to remove calcium via dialysis using a 10-kDa molecular weight cut off membrane. The fluorescent GTP analog was added to give a final concentration of 3.0 μM and fluorescence was measured on a microplate reader after 10 minutes of incubation (Ex/Em: 490/520 nm).

P-gp (MDR1) = assay: MDCK-MDR1 permeability; assay type: in vitro ADME; settings: dog, MDCK-MDR1
Kinetic solubility = assay type: physicochemical; settings: kinetic from dmso stock

Compound: C=CC(=O)NCCCC[C@H](NC(=O)OCc1ccccc1)C(=O)N1CCN(C(=O)c2cccc3ccccc23)CC1 [AA9, reference compound]
- suppression of TG2 binding of GTP-γ-S-FL BODIPY (hTG2 [1]): suppress the ability of TG2 to bind GTP-γ-S-FL BODIPY

Compound: C=CC(=O)NCCCC[C@H](NC(=O)Cc1ccccc1F)C(=O)N1CCN(C(=O)c2cccc3ccccc23)CC1 [Inhibitor 72, (S)-N-(6-(4-(1-naphthoyl)piperazin-1-yl)-5-(2-(2-fluorophenyl)acetamido)-6-oxohexyl)acrylamide]
- inhibition of GTP binding of hTG2 (hTG2 [2]): abolished the GTP binding ability

Compound: C=CC(=O)NCCCC[C@H](NC(=O)Cc1ccccc1C)C(=O)N1CCN(C(=O)c2cccc3ccccc23)CC1 [Inhibitor 74, (S)-N-(6-(4-(1-naphthoyl)piperazin-1-yl)-5-(2-(2-methylphenyl)acetamido)-6-oxohexyl)acrylamide]
- efflux ratio (P-gp (MDR1)): > 50
- solubility kinetic (Kinetic solubility): 39 µM (≈ 21.6 µg/mL)

From US20240383869A1, “ARYLACETYL INHIBITORS OF TG2 AND USES THEREOF” (UNIVERSITY OF OTTAWA, priority 2021, published 2024)
